Where two headings read alike, the source gives them in different places.
Key:
[1] = cited from earlier work
[2] = cited from earlier work; remark: listed apart in the source
[3] = 24 h, 0.25 mmol/L, pH 10.2
[4] = 24 h, 0.25 mmol/L, pH 8
[5] = 24 h, 0.25 mmol/L, pH 10.2; remark: listed apart in the source
[6] = 24 h, 0.25 mmol/L, pH 8; remark: listed apart in the source
[7] = 24 h, 0.25 mmol/L

Difference in depletion (under light irradiation - without light irradiation) NAL (%) [5] | NAL Depletion (%) under light irradiation [5] | NAL Depletion (%) without light irradiation [5] | Difference in depletion (under light irradiation - without light irradiation) NAC (%) [6] | NAC Depletion (%) under light irradiation [6] | NAC Depletion (%) without light irradiation [6] | Structure (SMILES) | In vivo phototoxicity ([1]; in vivo) | In vivo photoallergy ([2]; in vivo) | NAL Depletion (%) [3] | NAC Depletion (%) [4] | Average score (%) [7] | In vivo photoallergy ([2]; reported in References 1 and 2) | In vivo phototoxicity ([1]; reported in References 1 to 3)
19.3% | 20.3% | 1.0% | 93.6% | 93.6% | 0.0% | CCOc1ccc2c(C)cc(=O)oc2c1 [compound 29, 4-Methyl-7-ethoxycoumarin] |  |  |  |  |  | Positive | 
3.3% | 6.1% | 2.8% | 3.7% | 5.5% | 1.8% | CCCCCCCCCCCCCCCCO [compound 49, Cetyl alcohol] |  |  |  |  |  | Negative | Negative
5.5% | 5.7% | 0.2% | 95.8% | 96.3% | 0.5% | Cc1ccc2oc(=O)ccc2c1 [compound 2, 6-Methylcoumarin] |  |  |  |  |  | Positive | Positive

Further lines, the molecule ahead of its results:

Structure (SMILES) | Difference in depletion (under light irradiation - without light irradiation) NAL (%) [5] | NAL Depletion (%) under light irradiation [5] | NAL Depletion (%) without light irradiation [5] | Difference in depletion (under light irradiation - without light irradiation) NAC (%) [6] | NAC Depletion (%) under light irradiation [6] | NAC Depletion (%) without light irradiation [6] | In vivo phototoxicity ([1]; in vivo) | In vivo photoallergy ([2]; in vivo) | NAL Depletion (%) [3] | NAC Depletion (%) [4] | Average score (%) [7] | In vivo photoallergy ([2]; reported in References 1 and 2) | In vivo phototoxicity ([1]; reported in References 1 to 3)
CCCCC(CC)COC(=O)c1ccc(N(C)C)cc1 (centres unmarked) [No. 19, 2-ethylhexyl p-dimethylaminobenzoate] |  |  |  |  |  |  | Negative | Positive | 1.3% | 98.1% |  |  | 
CC(=O)c1ccc2ccccc2c1 [compound 37, Methyl β-naphthyl ketone] | 6.9% | 8.4% | 1.5% | 99.4% | 100.0% | 0.6% |  |  |  |  |  |  | 
Oc1ccc(Cl)cc1Cc1cc(Cl)ccc1O [No. 21, Dichlorophen] |  |  |  |  |  |  |  | Positive | 14.5% | 98.5% | 56.5% |  | 
Nc1ccc(S(N)(=O)=O)cc1 [compound 27, Sulfanilamide] | −0.2% | 0.0% | 0.2% | 25.5% | 26.1% | 0.6% |  |  |  |  |  | Positive | 
